Converted amounts (≈) assume the structure as drawn.
Test system: S. pneumoniae ATCC 49619
Assay: Minimal inhibitory concentration (MIC) by microdilution method (CLSI M7-A7)
Format: cell-based, Streptococcus pneumoniae
Conditions: Streptococcus pneumoniae, ATCC49619, cation-adjusted Mueller-Hinton Broth supplemented with 3% (v/v) lysed horse blood
Outline: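 Broth microdilution per CLSI M7-A7 in cation-adjusted Mueller-Hinton broth, supplemented with 3% (v/v) lysed horse blood for S. pneumoniae; MIC reported in mg/l.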

Row | SMILES | MIC
1 | CCNC(=O)Nc1cc2cccc(Nc3ccc(CC(=O)NC)cc3)c2cn1.Cl [Example 207, 2-{4-[3-(3-ethyl-ureido)-isoquinolin-8-ylamino]phenyl}-N-methyl-acetamide hydrochloride] | 2 µg/mL
2 | CCNC(=O)Nc1cc2cc(NCc3ccc(-n4cnc(C)n4)cc3)cc(C)c2cn1.Cl [Example 131, 1-ethyl-3-{8-methyl-6-[4-(3-methyl-[1,2,4]triazol-1-yl)-benzylamino]-isoquinolin-3-yl}-urea hydrochloride] | 4 µg/mL
3 | CCNC(=O)Nc1cc2cc(-c3cn[nH]c3)cc(C)c2cn1 [Example 28, 1-ethyl-3-[8-methyl-6-(1H-pyrazol-4-yl)-isoquinolin-3-yl]-urea] | 2 µg/mL (≈ 6.77 µM)
4 | CCNC(=O)Nc1cc2c(F)c(-c3cccnc3)cc(C)c2cn1 [Example 47, 1-ethyl-3-(5-fluoro-8-methyl-6-pyridin-3-yl-isoquinolin-3-yl)-urea] | 2 µg/mL (≈ 6.17 µM)
5 | CCNC(=O)Nc1cc2c(-c3cccc4cnccc34)ccc(C)c2cn1 [Example 67, 1-ethyl-3-(8-methyl-[5,5′]biisoquinolinyl-3-yl)-urea] | 16 µg/mL (≈ 44.9 µM)
6 | CCNC(=O)Nc1cc2c(-c3ccncc3)ccc(OC)c2cn1 [Example 125, 1-ethyl-3-(8-methoxy-5-pyridin-4-yl-isoquinolin-3-yl)-urea] | 4 µg/mL (≈ 12.4 µM)
7 | CCNC(=O)Nc1cc2cc(N)cc(C)c2cn1 [Example 54, 1-(6-amino-8-methyl-isoquinolin-3-yl)-3-ethyl-urea] | 16 µg/mL (≈ 65.5 µM)
8 | CCNC(=O)Nc1cc2cccc(Nc3ccncc3)c2cn1 [Example 153, 1-ethyl-3-[8-(pyridin-4-ylamino)-isoquinolin-3-yl]-urea] | 8 µg/mL (≈ 26 µM)
9 | CCNC(=O)Nc1cc2c(Br)ccc(C)c2cn1 [Example 1, 1-(5-bromo-8-methyl-isoquinolin-3-yl)-3-ethyl-urea] | 1 µg/mL (≈ 3.24 µM)
10 | CCNC(=O)Nc1cc2cccc(COc3ccc(C)cn3)c2cn1.Cl [Example 257, 1-ethyl-3-[8-(5-methyl-pyridin-2-yloxymethyl)-isoquinolin-3-yl]-urea hydrochloride] | 8 µg/mL
11 | CCNC(=O)Nc1cc2cc(-c3cccc(NC(C)=O)c3)cc(C)c2cn1 [Example 37, N-{3-[3-(3-ethyl-ureido)-8-methyl-isoquinolin-6-yl]-phenyl}-acetamide] | 1 µg/mL (≈ 2.76 µM)
12 | CCNC(=O)Nc1cc2cccc(COc3ccc(C)nc3)c2cn1.Cl [Example 256, 1-ethyl-3-[8-(6-methyl-pyridin-3-yloxymethyl)-isoquinolin-3-yl]-urea hydrochloride] | 8 µg/mL
13 | CCNC(=O)Nc1cc2cc(NC(=O)c3ccc(C(=O)OC)cc3)cc(C)c2cn1 [Example 193, N-[3-(3-ethyl-ureido)-8-methyl-isoquinolin-6-yl]terephthalamic acid methyl ester] | 1 µg/mL (≈ 2.46 µM)
14 | CCNC(=O)Nc1cc2cccc(COc3ccncc3)c2cn1.Cl [Example 262, 1-ethyl-3-[8-(pyridin-4-yloxymethyl)-isoquinolin-3-yl]-urea hydrochloride] | 8 µg/mL
15 | CCNC(=O)Nc1cc2c(-c3cccc(CO)c3)ccc(C)c2cn1 [Example 12, 1-ethyl-3-[5-(3-hydroxymethyl-phenyl)-8-methyl-isoquinolin-3-yl]-urea] | 8 µg/mL (≈ 23.9 µM)
16 | CCNC(=O)Nc1cc2c(F)c(-c3cccc(NC(C)=O)c3)cc(-c3cccnc3)c2cn1 [Example 113, N-{3-[3-(3-ethyl-ureido)-5-fluoro-8-pyridin-3-yl-isoquinolin-6-yl]-phenyl}-acetamide] | 1 µg/mL (≈ 2.25 µM)
17 | CCNC(=O)Nc1cc2cc(-c3ccc(CO)nc3)cc(C)c2cn1 [Example 101, 1-ethyl-3-[6-(6-hydroxymethyl-pyridin-3-yl)-8-methyl-isoquinolin-3-yl]-urea] | 1 µg/mL (≈ 2.97 µM)
18 | CCNC(=O)Nc1cc2cccc(Nc3ccncn3)c2cn1 [Example 151, 1-ethyl-3-[8-(pyrimidin-4-ylamino)-isoquinolin-3-yl]-urea] | 4 µg/mL (≈ 13 µM)
19 | CCNC(=O)Nc1cc2cccc(Nc3cccc(C(=O)O)c3)c2cn1 [Example 198, 3-[3-(3-ethyl-ureido)-isoquinolin-8-ylamino]-benzoic acid] | 1 µg/mL (≈ 2.85 µM)
